Values of other authors in patent US20110212461A1, “PREDICTION OF CARDIOTOXICITY” (priority 2010, published 2011).

Conditions: assessment positive or negative; marketed/external kinase inhibitors; from public literature and internal data

Q: For COc1cc2ncnc(Nc3ccc(F)c(Cl)c3)c2cc1OCCCN1CCOCC1 [Iressa], which Cardiotoxicity is on record?
A: Its Cardiotoxicity is “Negative”.

Q: With CNC(=O)c1cc(Oc2ccc(NC(=O)Nc3ccc(Cl)c(C(F)(F)F)c3)cc2)ccn1 [Nexavar, sorafenib] as the compound, how does the Cardiotoxicity read?
A: Its Cardiotoxicity is “Positive”.

Q: With Cc1cn(-c2cc(NC(=O)c3ccc(C)c(Nc4nccc(-c5cccnc5)n4)c3)cc(C(F)(F)F)c2)cn1 [Nilotinib] as the compound, how does the Cardiotoxicity read?
A: The Cardiotoxicity was “Positive”.

Q: For Cc1nc(Nc2ncc(C(=O)Nc3c(C)cccc3Cl)s2)cc(N2CCN(CCO)CC2)n1 [Sprycel, dasatinib], which Cardiotoxicity is on record?
A: Its Cardiotoxicity is “Positive”.

Q: For CCN(CC)CCNC(=O)c1c(C)[nH]c(/C=C2\C(=O)Nc3ccc(F)cc32)c1C [Sutent, sunitinib], which Cardiotoxicity is on record?
A: Its Cardiotoxicity is “Positive”.

Q: For C#Cc1cccc(Nc2ncnc3cc(OCCOC)c(OCCOC)cc23)c1 [Tarceva], which Cardiotoxicity is on record?
A: Its Cardiotoxicity is “Negative”.

Q: For CS(=O)(=O)CCNCc1ccc(-c2ccc3ncnc(Nc4ccc(OCc5cccc(F)c5)c(Cl)c4)c3c2)o1 [Tykerb], which Cardiotoxicity is on record?
A: The Cardiotoxicity was “Negative”.

Q: For COc1cc2c(Nc3ccc(Br)cc3F)ncnc2cc1OCC1CCN(C)CC1 [Zactima], which Cardiotoxicity is on record?
A: Its Cardiotoxicity is “Positive”.
